In brackets after ≈: the same amount, converted by molar mass. Activity calls are given as the source filed them. The rule behind the calls is not given here.
Assays:
[1] = Cytotoxicity against human NSCLC-N6 L16; type: functional
[2] = system: Candida albicans; test: Antifungal activity against Candida albicans at 200 ug/disk after 18 hrs by paper disk agar diffusion assay; type: functional, organism-based
[3] = system: Staphylococcus aureus; test: Antibacterial activity against Staphylococcus aureus at 200 ug/disk after 18 hrs by paper disk agar diffusion assay; type: functional; details: read-out: IZ
[4] = system: Staphylococcus aureus; test: Antibacterial activity against Staphylococcus aureus at 100 ug/disk after 18 hrs by paper disk agar diffusion assay; type: functional; details: read-out: IZ
[5] = system: DU-145; test: Cytotoxicity against human DU145; type: functional, cell-based
[6] = system: MIA PaCa-2; test: Cytotoxicity against human PaCa2; type: functional, cell-based
[7] = system: Paracentrotus lividus; test: Inhibition of sea urchin egg division
[8] = system: Staphylococcus aureus; test: Antibacterial activity against Staphylococcus aureus at 50 ug/disk after 18 hrs by paper disk agar diffusion assay; type: functional; details: read-out: IZ
[9] = system: DNA; test: Binding affinity to calf thymus DNA by DNA intercalating assay relative to ethidium bromide; type: nucleic-acid assay; details: Bos taurus

For `COC1(CO)Nc2cc(Br)ccc2C1=O` (centres undefined) [MATEMONE], the IC50 [1] was 30 µg/mL (≈ 110 µM), the Activity [2] was “inactive” and the zone of inhibition at 200 µg/disc [3] was 11 mm. The zone of inhibition at 100 µg/disc [4] was 9 mm, the IC50 [5] was 27 µg/mL (≈ 99.2 µM) and the IC50 [6] was 24 µg/mL (≈ 88.2 µM). The IC50 [7] was 35 µg/mL (≈ 129 µM), the zone of inhibition at 50 µg/disc [8] was 7 mm and the Activity [9] was 40%.
